Earlier results as cited in US20060093676A1, “Ascorbic acid stability” (priority 2002, published 2006).

Details: in water

In the case of `O=C1O[C@H]([C@@H](O)CO)C(O)=C1O` [L-Ascorbic acid], the “pK of acid-ionizable hydrogen” value is listed as 4.2.
